Measurements from ChEMBL document CHEMBL1201862, “PubChem BioAssay data set” (2004).
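Briefly, cells in 96-well plates were exposed to five compound concentrations for 48 h, and endpoints were estimated by linear interpolation. Here, GI50 denotes the concentration required for 50% inhibition of growth.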 Calls of active or inactive are those of the source. Rule as the data show it: active = GI50 up to about 1.1 µM and inactive = higher.

How the values were obtained:
Assay in all cases: NCI-60 cell line screen, 48 h
SF-268 = test system: SF-268
TK-10 = test system: TK-10
IGROV-1 = test system: IGROV-1
NCI/ADR-RES = test system: NCI/ADR-RES
LOX IMVI = test system: LOX IMVI
EKVX = test system: EKVX
NCI-H522 = test system: NCI-H522
SNB-19 = test system: SNB-19
UACC-62 = test system: UACC-62
SF-539 = test system: SF-539
K562 = test system: K562
HCT-116 = test system: HCT-116
PC-3 = test system: PC-3
SNB-75 = test system: SNB-75
NCI-H226 = test system: NCI-H226
MOLT-4 = test system: MOLT-4
U-251 = test system: U-251
SK-MEL-28 = test system: SK-MEL-28
ACHN = test system: ACHN
786-0 = test system: 786-0
SN12C = test system: SN12C
SF-295 = test system: SF-295
Hs-578T = test system: Hs-578T
MDA-MB-231 = test system: MDA-MB-231
SK-OV-3 = test system: SK-OV-3
COLO 205 = test system: COLO 205
HT-29 = test system: HT-29
OVCAR-8 = test system: OVCAR-8
NCI-H460 = test system: NCI-H460
UO-31 = test system: UO-31
MDA-MB-435 = test system: MDA-MB-435
A498 = test system: A498
HOP-62 = test system: HOP-62
SW-620 = test system: SW-620
HCT-15 = test system: HCT-15
HL-60 = test system: HL-60
BT-549 = test system: BT-549
OVCAR-5 = test system: OVCAR-5
SR = test system: SR
A549 = test system: A549
SK-MEL-5 = test system: SK-MEL-5
OVCAR-4 = test system: OVCAR-4
OVCAR-3 = test system: OVCAR-3
T47D = test system: T47D
CAKI-1 = test system: CAKI-1
M14 = test system: M14
RPMI-8226 = test system: RPMI-8226
CCRF-CEM = test system: CCRF-CEM
DU-145 = test system: DU-145
RXF 393 = test system: RXF 393
NCI-H23 = test system: NCI-H23
MCF7 = test system: MCF7
Malme-3M = test system: Malme-3M
SK-MEL-2 = test system: SK-MEL-2
HOP-92 = test system: HOP-92
UACC-257 = test system: UACC-257
KM12 = test system: KM12
MDA-N = test system: MDA-N
HCC 2998 = test system: HCC 2998

Measured: GI50

CC(NCCN(C)C)C1CCC2C3CCc4cc(O)ccc4C3CCC12C (configuration not stated)
inactive: SF-268 5.28 µM | TK-10 2.72 µM | IGROV-1 4.97 µM | NCI/ADR-RES 2.86 µM | LOX IMVI 2.03 µM | EKVX 5.19 µM | NCI-H522 3.2 µM | SNB-19 3.54 µM | UACC-62 1.93 µM | SF-539 4.76 µM | K562 1.86 µM | HCT-116 2.66 µM | PC-3 2.82 µM | SNB-75 3.14 µM | NCI-H226 17.8 µM | MOLT-4 1.85 µM | U-251 2.07 µM | SK-MEL-28 2.19 µM | ACHN 2 µM | 786-0 1.83 µM | SN12C 2 µM | SF-295 2.59 µM | Hs-578T 4.17 µM | MDA-MB-231 1.97 µM | SK-OV-3 3.69 µM | COLO 205 1.84 µM | HT-29 2.89 µM | OVCAR-8 2.79 µM | NCI-H460 2.2 µM | UO-31 1.81 µM | MDA-MB-435 2.05 µM | A498 4.01 µM | HOP-62 3.24 µM | SW-620 3.33 µM | HL-60 2.09 µM | BT-549 17.4 µM | OVCAR-5 5.42 µM | SR 1.44 µM | A549 3.65 µM | SK-MEL-5 1.71 µM | OVCAR-4 3.02 µM | OVCAR-3 1.88 µM | T47D 2.34 µM | CAKI-1 2.07 µM | M14 1.67 µM | RPMI-8226 2.34 µM | DU-145 6.18 µM | RXF 393 1.85 µM | NCI-H23 4.45 µM | MCF7 2.96 µM | Malme-3M 1.68 µM | SK-MEL-2 1.91 µM | HOP-92 2.81 µM | UACC-257 2.06 µM | KM12 3.21 µM
active: CCRF-CEM 0.723 µM
2.79 µM: HCT-15

COc1ccc(/C=C/C(=O)CCN2CCN(CCC(=O)/C=C/c3ccc(OC)cc3)CC2)cc1
active: A498 < 0.01 µM
8.53 µM: HCT-15
inactive: SF-268 17.4 µM | TK-10 14.9 µM | IGROV-1 11.5 µM | NCI/ADR-RES 36.4 µM | LOX IMVI 3.49 µM | EKVX 14.5 µM | SNB-19 43.6 µM | UACC-62 13.4 µM | SF-539 6.17 µM | K562 5.22 µM | HCT-116 3.29 µM | PC-3 12.9 µM | SNB-75 19.1 µM | NCI-H226 22.3 µM | MOLT-4 6.87 µM | MDA-N 2.54 µM | U-251 12.1 µM | SK-MEL-28 13.6 µM | ACHN 14.2 µM | 786-0 3.4 µM | SN12C 12.6 µM | SF-295 8.26 µM | Hs-578T 20 µM | MDA-MB-231 12.6 µM | SK-OV-3 11.8 µM | COLO 205 2.01 µM | HT-29 10.4 µM | OVCAR-8 20.8 µM | NCI-H460 11.1 µM | UO-31 14.6 µM | MDA-MB-435 9.35 µM | HOP-62 20.6 µM | SW-620 4.1 µM | HL-60 4.61 µM | BT-549 18.6 µM | OVCAR-5 17.9 µM | A549 20.9 µM | SK-MEL-5 18.1 µM | OVCAR-4 22.8 µM | OVCAR-3 11.4 µM | HCC 2998 12.2 µM | CAKI-1 13.5 µM | M14 15.3 µM | DU-145 26.2 µM | RXF 393 4.25 µM | NCI-H23 15.6 µM | MCF7 3.56 µM | Malme-3M 18.7 µM | SK-MEL-2 19.4 µM | HOP-92 18.6 µM | UACC-257 14.8 µM | KM12 10.7 µM

O=c1oc2ccccc2c2c1Sc1ccccc1N2
active: T47D 0.897 µM
inactive: SF-268 56.6 µM | TK-10 > 100 µM | IGROV-1 > 100 µM | NCI/ADR-RES > 100 µM | LOX IMVI > 100 µM | EKVX 62.2 µM | NCI-H522 > 100 µM | SNB-19 > 100 µM | UACC-62 50.1 µM | SF-539 > 100 µM | K562 > 100 µM | HCT-116 89.3 µM | PC-3 > 100 µM | NCI-H226 82.4 µM | MOLT-4 63.4 µM | U-251 58.3 µM | SK-MEL-28 > 100 µM | ACHN > 100 µM | 786-0 > 100 µM | SN12C > 100 µM | SF-295 > 100 µM | Hs-578T > 100 µM | MDA-MB-231 85.5 µM | COLO 205 > 100 µM | HT-29 > 100 µM | OVCAR-8 > 100 µM | NCI-H460 92.9 µM | UO-31 > 100 µM | MDA-MB-435 96.4 µM | A498 > 100 µM | HOP-62 > 100 µM | SW-620 > 100 µM | HL-60 > 100 µM | BT-549 > 100 µM | OVCAR-5 > 100 µM | SR 53.6 µM | A549 > 10 µM | SK-MEL-5 48.9 µM | OVCAR-4 22.8 µM | OVCAR-3 68.9 µM | HCC 2998 53 µM | CAKI-1 > 100 µM | M14 > 100 µM | RPMI-8226 47.2 µM | CCRF-CEM 75.9 µM | DU-145 > 100 µM | RXF 393 64.9 µM | NCI-H23 74.8 µM | MCF7 71.3 µM | SK-MEL-2 2.58 µM | HOP-92 12.7 µM | UACC-257 > 100 µM | KM12 70.5 µM
36.2 µM: HCT-15

CCOC(=O)c1[nH]c2cccc3c2c1CC(Br)C3=O (configuration not stated)
3.72 µM: HCT-15
inactive: SF-268 15.6 µM | TK-10 14.6 µM | IGROV-1 5.86 µM | NCI/ADR-RES 15.3 µM | LOX IMVI 15.7 µM | EKVX 17.5 µM | SNB-19 15.7 µM | SF-539 16.4 µM | HCT-116 2.48 µM | PC-3 15.1 µM | NCI-H226 17.4 µM | MOLT-4 2.71 µM | MDA-N 11.6 µM | U-251 14.9 µM | SK-MEL-28 20 µM | ACHN 6.98 µM | 786-0 4.72 µM | SN12C 16.7 µM | SF-295 17.2 µM | MDA-MB-231 18.5 µM | SK-OV-3 22.7 µM | COLO 205 14 µM | HT-29 20 µM | OVCAR-8 16.6 µM | NCI-H460 22.3 µM | UO-31 6.21 µM | MDA-MB-435 11.7 µM | A498 17.7 µM | HOP-62 19 µM | SW-620 2.34 µM | HL-60 2.94 µM | BT-549 16.9 µM | OVCAR-5 19 µM | SR 2.14 µM | A549 17.3 µM | SK-MEL-5 18.5 µM | OVCAR-3 13.2 µM | HCC 2998 14.7 µM | T47D 15.9 µM | CAKI-1 11.2 µM | M14 13.4 µM | RPMI-8226 5.02 µM | CCRF-CEM 3.83 µM | DU-145 16.1 µM | NCI-H23 17.6 µM | MCF7 22.5 µM | Malme-3M 14.5 µM | HOP-92 16.7 µM | UACC-257 14.4 µM | KM12 15.8 µM

COC(=O)C1=C(OC(=O)/C(=C/c2c(F)cccc2F)c2ccccc2)C(C(=O)OC)[C@@]2(O)[C@@H](C(=O)OC)[C@H](C)C[C@@H]1[C@@H]2C(=O)OC (some centres not stated)
> 100 µM: HCT-15
inactive: SF-268 > 100 µM | TK-10 > 100 µM | IGROV-1 59.4 µM | NCI/ADR-RES > 100 µM | LOX IMVI > 100 µM | EKVX > 100 µM | NCI-H522 6.76 µM | SNB-19 > 100 µM | UACC-62 > 100 µM | SF-539 > 100 µM | K562 > 100 µM | HCT-116 > 100 µM | PC-3 > 100 µM | SNB-75 > 100 µM | NCI-H226 > 100 µM | MOLT-4 > 100 µM | U-251 > 100 µM | SK-MEL-28 > 100 µM | ACHN > 100 µM | 786-0 > 100 µM | SN12C > 100 µM | SF-295 > 100 µM | MDA-MB-231 > 100 µM | SK-OV-3 > 100 µM | COLO 205 > 100 µM | HT-29 > 100 µM | OVCAR-8 > 100 µM | NCI-H460 > 100 µM | UO-31 2.9 µM | MDA-MB-435 > 100 µM | HOP-62 > 100 µM | SW-620 > 100 µM | HL-60 > 100 µM | BT-549 > 100 µM | OVCAR-5 > 100 µM | A549 86.3 µM | OVCAR-4 > 100 µM | OVCAR-3 > 100 µM | T47D > 100 µM | CAKI-1 > 100 µM | M14 > 100 µM | CCRF-CEM > 100 µM | DU-145 > 100 µM | RXF 393 > 100 µM | NCI-H23 > 100 µM | Malme-3M 68.5 µM | SK-MEL-2 > 100 µM | UACC-257 > 100 µM | KM12 > 100 µM
